According to patent publication US20210238197A1, “NOVEL OXOQUINOLIZINE COMPOUNDS FOR THE TREATMENT AND PROPHYLAXIS OF BACTERIAL INFECTION” (Hoffmann-La Roche Inc., priority 2018, published 2021):
≈ marks a conversion by molar mass, not a printed value. Like-named read-outs stand apart in the source and are kept apart here.

Tests used:
[1] = Cytotoxicity assay (HepG2, CellTiter-Blue); type: cell-based; details: human; HepG2 cells, 3 days treatment; >100 = detection limit
Experimental: The cytotoxicity of compounds of present invention was assessed by HepG2 assay. HepG2 cells (ATCC RB-8065™) were seeded into 96-well plates (1.2×10^4 cells per well) and treated with compounds for 3 days, cell viability was measured at day 3 post compound treatment using the CellTiter-Blue® Cell Viability Assay (Promega, Cat. No. G8082). […], of Cell titer blue buffer were added to each well of the cells, which were incubated for 3 hours at 37° C., and the fluorescence value was measured by a plate reader (Molecular Device SpectraMax M2). The CC50 value of each compound is plotted with GraphPad Prism using four parameter logistic equation.

[2] = tested on: multiple species and strains; assay: microbe, parasite or virus in culture; design: MIC S9 / MIC S7 / MIC S11 / MIC S8 / MIC S10: unit not given beside the values; details: for MIC S9: E. coli ATCC 35218
Experimental: The MIC of antibacterial compounds against multiple species and strains was determined using the broth microdilution method according to M07-A10 Clinical and Laboratory Standards Institute (CLSI) guidelines (CLSI (2015) Methods for dilution antimicrobial susceptibility tests for bacteria that grow aerobically; Approved Standard, Tenth Edition. CLSI Document M7-A10 (ISBN 1-56238-987-4). Wayne, Pa.: Clinical and Laboratory Standards Institute, 19087, USA.). In short, bacterial strain preparation was performed on D1 and D2. […] 5-10 well-isolated colonies of similar morphology were selected and re-streaked onto fresh agar plates using sterile loops and incubated for 20-24 hr at 35±2° C. Bacterial strains were subcultured two times to ensure fresh inoculums for MIC screening. […] Alternatively, 1-2 colonies were transferred into 500 μL of saline and OD600 was adjusted to ˜0.1 using an OD meter. Bacterial inoculum was diluted by 1:280 for Gram-positive strains and 1:400 for Gram-negative strains into corresponding medium broth (CAMHB, CAMHB+3% lysed horse blood, HTM) (e.g. 35.6 μL of inoculum into 10 mL of CAMHB or 25 μL of inoculum into 10 mL of CAMHB). For compound plate, the compound stock solutions were prepared in 100% DMSO on the day of MIC screening and used immediately. Compound stock concentration=[(highest testing concentration)×100 μL/2 μL] (e.g. if the required highest testing concentration is 64 μg/mL in assay plates, stock concentration=64 μg/mL×100 μL/2 μL=3.2 mg/mL). […] 1 μL of each well was transferred in a new MTP, which served as the test plate by subsequent inoculation. The bacterial suspension prepared above is dispensed at 98 μL/well within 15 minutes after preparation. Negative controls (lack of bacterial cells) and growth control wells (lack of compound) were included in all plates. MTPs were incubated for 18-24 hours at 35±2° C. in ambient air. The MIC was recorded and CFUs were calculated on Day 4. The assay plate was placed on the top of MIC reader, and the magnification mirror was adjusted to read each wells, recording growth status as raw data. Photo images of each assay plates were recorded using Q Count 530 (Spiral Biotech). The MIC value of each compound, expressed as μg/mL, was determined as the lowest concentration required for complete growth inhibition (no visible growth).

S. aureus (ATCC29213) = assay: 50% growth inhibitory concentration (IC50) determination assay, S. aureus; type: cell-based; details: Staphylococcus aureus, ATCC29213; Iso-Sensitest broth, growth by OD 600 nm over 16 h; <0.098 = detection limit
Experimental: (§1) The in vitro antimicrobial activity of the compounds against S. aureus (ATCC29213), K. pneumoniae (ATCC10031), and A. baumannii (ATCC17978), was determined according to the following procedure: The assay used a 10-points Iso-Sensitest broth medium to measure quantitatively the in vitro activity of the compounds against S. aureus ATCC29213, K. pneumoniae ATCC 10031, and A. baumannii ATCC17978. Stock compounds in DMSO were serially two-fold diluted (range from 50 to 0.097 μM final concentration) in 384 wells microtiter plates and inoculated with 49 μL the bacterial suspension in Iso-Sensitest broth medium to have a final cell concentration of ˜5×10^5 CFU/mL in a final volume/well of 50 μL/well. Microtiter plates were incubated at 35±2° C. Bacterial cell growth was determined with the measurement of optical density at λ=600 nm each 20 minutes over a time course of 16 h.

[3] = tested on: K. pneumoniae (ATCC10031); assay: 50% growth inhibitory concentration (IC50) determination assay, K. pneumoniae; type: cell-based; details: Klebsiella pneumoniae, ATCC10031; Iso-Sensitest broth, growth by OD 600 nm over 16 h; <0.098 = detection limit
Experimental: as §1

A. baumannii (ATCC17978) = assay: 50% growth inhibitory concentration (IC50) determination assay, A. baumannii; type: cell-based; details: Acinetobacter baumannii, ATCC17978; Iso-Sensitest broth, growth by OD 600 nm over 16 h; <0.098 = detection limit
Experimental: as §1

[4] = Acinetobacter baumannii, ATCC19606, read-out: MIC S1, A. baumannii ATCC 19606
[5] = Acinetobacter baumannii, ATCC51432, read-out: MIC S2, A. baumannii ATCC 51432
[6] = Acinetobacter baumannii, ATCCBAA747, read-out: MIC S3, A. baumannii ATCC BAA-747
[7] = Escherichia coli, ATCC25922, read-out: MIC S11, E. coli ATCC 25922
[8] = Escherichia coli, ATCCBAA2340, read-out: MIC S10, E. coli ATCC BAA-2340
[9] = Klebsiella pneumoniae, ATCC10031, read-out: MIC S4, K. pneumoniae ATCC 10031
[10] = Klebsiella pneumoniae, ATCC700603, read-out: MIC S5, K. pneumoniae ATCC 700603
[11] = Klebsiella pneumoniae, ATCCBAA2146, read-out: MIC S6, K. pneumoniae ATCC BAA-2146
[12] = Pseudomonas aeruginosa, ATCC27853, read-out: MIC S7, P. aeruginosa ATCC 27853
[13] = Pseudomonas aeruginosa, ATCCBAA2113, read-out: MIC S8, P. aeruginosa ATCC BAA-2113

| SMILES | CC50 at 3 days [1] [µM] | MIC [2, 4] [mg/L] | MIC [2, 5] [mg/L] | MIC [2, 6] [mg/L] | MIC S9 [2] | MIC [2, 7] [mg/L] | MIC [2, 8] [mg/L] | MIC [2, 9] [mg/L] | MIC [2, 10] [mg/L] | MIC [2, 11] [mg/L] | MIC [2, 12] [mg/L] | MIC [2, 13] [mg/L] | IC50 (S. aureus (ATCC29213)) [µM] | IC50 [3] [µM] | IC50 (A. baumannii (ATCC17978)) [µM] |
| --- | --- | --- | --- | --- | --- | --- | --- | --- | --- | --- | --- | --- | --- | --- | --- |
| CNc1cc(F)c(Cl)c2c1[nH]c1ncc(-c3ccc4ccc(C(=O)O)c(=O)n4c3)c(N3CC[C@@]4(C[C@@H]4N)C3)c12 (single isomer, unassigned) [Example 5.01A] | > 100 | 1.03 (≈ 1.88 µM) | 1.03 (≈ 1.88 µM) | 1.03 (≈ 1.88 µM) | 0.516 | 0.194 (≈ 0.355 µM) | 0.516 (≈ 0.943 µM) | 0.032 (≈ 0.0585 µM) | 2.07 (≈ 3.78 µM) | 4.13 (≈ 7.55 µM) | 2.07 (≈ 3.78 µM) | 2.07 (≈ 3.78 µM) |  |  |  |
| CNc1cc(F)cc2c1[nH]c1ncc(-c3ccc4ccc(C(=O)O)c(=O)n4c3)c(N3CCOCC3)c12 [Example 1.02, 7-(6-fluoro-8-(methylamino)-4-morpholino-9H-pyrido[2,3-b]indol-3-yl)-4-oxo-4H-quinolizine-3-carboxylic acid] | 24.1 |  |  |  |  |  |  |  |  |  |  |  | 0.159 | < 0.098 | < 0.098 |
| CNc1cc(F)c(C#N)c2c1[nH]c1ncc(-c3ccc4ccc(C(=O)O)c(=O)n4c3)c(N3CC4C(N(C)C)CO[C@@H]4C3)c12 (stereo partly drawn) [Example 1.15, 7-[5-cyano-4-[cis-3-(dimethylamino)-2,3,3a,4,6,6a-hexahydrofuro[2,3-c]pyrrol-5-yl]-6-fluoro-8-(methylamino)-9H-pyrido[2,3-b]indol-3-yl]-4-oxo-quinolizine-3-carboxylic acid] | 75.4 |  |  |  |  |  |  |  |  |  |  |  | 0.103 | < 0.098 | < 0.098 |
| CNc1cc(F)c(F)c2c1[nH]c1ncc(-c3ccc4ccc(C(=O)O)c(=O)n4c3)c(N3CC[C@@H]4CCN(C)[C@@H]4C3)c12 [Example 3.04B, 7-[4-[(3aS,7aS)-1-methyl-3,3a,4,5,7,7a-hexahydro-2H-pyrrolo[2,3-c]pyridin-6-yl]-5,6-difluoro-8-(methylamino)-9H-pyrido[2,3-b]indol-3-yl]-4-oxo-quinolizine-3-carboxylic acid] | 10.8 | 0.436 (≈ 0.781 µM) | 0.436 (≈ 0.781 µM) | 0.436 (≈ 0.781 µM) | 0.436 | 0.164 (≈ 0.294 µM) | 1.75 (≈ 3.13 µM) | 0.027 (≈ 0.0483 µM) | 1.75 (≈ 3.13 µM) | 1.75 (≈ 3.13 µM) | 0.873 (≈ 1.56 µM) | 1.75 (≈ 3.13 µM) | < 0.098 | < 0.098 | < 0.098 |
